Assay results from patent publication US7579365B2 (ZIOPHRAM Oncology, Inc., priority 1998, dated 2009).
≈ marks a conversion by molar mass, not a printed value. Entries after “also recorded” stand apart in the source; their conditions may differ. Read-outs that look alike come from different tables or passages of the source.

Tests used:
KB cell line = test: XTT proliferation test/cytotoxicity test, KB cell line; format: cell-based; details: KB tumor cells; for EC50: Homo sapiens, KB, read-out: XTT EC50 KB
Method: (§1) In this test system, the effect of substances on the proliferation behavior of tumor cell lines is investigated. In the course of this, the cytotoxic potential of these substances is determined. The test method is described in Scudiero et al. 1988, Cancer Res. 48, 4827.
(§2) The following tumor cell lines were employed in the investigations:
(§3) The KB cell line an epidermal carcinoma of the oral cavity,
(§4) the L1210 cell line a lymphatic leukemia of the mouse, the LNCAP cell line a prostate carcinoma and the SK-OV-3 cell line an ovarian carcinoma.

L1210 cell line = test: XTT proliferation test/cytotoxicity test, L1210 cell line; format: cell-based, mouse; details: for XTT EC50 L1210: L1210 tumor cells; for EC50: Mus musculus, L1210, L1210 tumor cells, read-out: XTT EC50 L1210
Method: as §1, §2, §3, §4

LNCAP cell line = test: XTT proliferation test/cytotoxicity test, LNCAP cell line; format: cell-based; details: LNCaP tumor cells; for EC50: Homo sapiens, read-out: XTT EC50 LNCaP
Method: as §1, §2, §3, §4

SK-OV-3 cell line = test: XTT proliferation test/cytotoxicity test, SK-OV-3 cell line; format: cell-based; details: for EC50: Homo sapiens, SK-OV-3, SK-OV-3 tumor cells, read-out: XTT EC50 SK-OV-3
Method: as §1, §2, §3, §4

KB [1] = test: Hollow fiber assay on the nude mouse, KB; format: in vivo
Excerpt: (§5) In the hollow fiber assay, both compounds were almost equally strongly active, while on L 1210 D-24851 was markedly more strongly active after oral and intraperitoneal administration than D-24241.

L1210 [2] = test: Hollow fiber assay on the nude mouse, L1210; format: in vivo
Excerpt: as §5

MCF-7 = test: Hollow fiber assay on the nude mouse, MCF-7; format: in vivo
Excerpt: as §5

L1210 [3] = test: L1210 leukemia model in vivo (% ILS, survival time); design: species or system mouse; details: for Antitumor action on L 1210 (mouse): oral and intraperitoneal administration
Excerpt: as §5

KB [4] = test: KB test on the nude mouse (% WHI); format: in vivo; details: for % WHI: KB
[5] = in vivo; for Tox. i.p.: ip
L1210 [6] = test: L1210 leukemia model in vivo (% ILS, survival time); details: Mus musculus, L1210, iv
SK-OV-3 = test: In vivo % WHI printed in the SK-OV-3 column of Table 3
Dunning tumor = Dunning tumor in the rat; format: in vivo; details: repeated oral administration, 7×100 mg/kg and 7×147 mg/kg p.o.
DNA = DNA fragmentation; details: after administration
Hematopoiesis test = format: in vivo; details: intraperitoneal administration; listed as D-24851

O=C(Nc1ccncc1)C(=O)c1cn(Cc2ccc(F)cc2)c2ccccc12 [Example 1, N-(Pyridin-4-yl)-[1-(4-fluorobenzyl)indol-3-yl]glyoxylamide]
EC50 (KB cell line): 0.02 µg/mL (≈ 0.0536 µM) | XTT EC50 KB (KB cell line; listed as D-24241): KB ≈ 0.02 μg/ml | XTT EC50 L1210 (L1210 cell line; listed as 1 (D 24241)): 0.170 µg/mL | XTT EC50 L1210 (L1210 cell line; listed as D 24241): ≈0.17 μg/ml | XTT EC50 L1210 (L1210 cell line; listed as D-24241): L1210 ≈ 0.07 μg/ml | EC50 (LNCAP cell line): > 31.6 µg/mL | XTT EC50 LNCaP (LNCAP cell line; listed as D 24241): >31.6 µg/mL | XTT EC50 LNCaP (LNCAP cell line; listed as D-24241): LNCAP > 31.6 μg/ml | EC50 (SK-OV-3 cell line): 0.17 µg/mL (≈ 0.455 µM) | XTT EC50 SK-OV-3 (SK-OV-3 cell line; SK-OV-3 tumor cells, listed as D-24241): SKOV3 ≈ 0.17 μg/ml | Hollow fiber intraperitoneal % INH (KB [1]; 4 × 15.8 mg/kg ip): 46% | Hollow fiber subcutaneous % INH (KB [1]; 4 × 15.8 mg/kg ip): 81% | Hollow fiber intraperitoneal % INH (L1210 [2]; 4 × 15.8 mg/kg ip): 43% | Hollow fiber subcutaneous % INH (L1210 [2]; 4 × 15.8 mg/kg ip): 68% | Hollow fiber intraperitoneal % INH (MCF-7; 4 × 15.8 mg/kg ip): no action | Hollow fiber subcutaneous % INH (MCF-7; 4 × 15.8 mg/kg ip): 33% | % ILS L1210 (L1210 [3]; 19 × 50 mg/kg per os, listed as D-24241, 50 mg/kg): 50% ILS | ILS at 464 mg/kg (L1210 [3]; Mus musculus, L1210, po, 1 × 464 mg/kg per os): 44% | ILS at 50 mg/kg (L1210 [3]; Mus musculus, L1210, po, 19 × 50 mg/kg per os): 50% | Antitumor action on L 1210 (mouse) (L1210 [3]): strong dose-dependent antitumor action | % WHI (KB [4]; 2 × 46.4 mg/kg ip): 22% | % WHI (KB [4]; 2 × 215 mg/kg po): 47% | Antitumor action in the KB test on the nude mouse (KB [4]): antitumor action | Tox. i.p. [5]: ≈158 i.p. mg/kg | LD50 (in vivo; LD50 1 × per os): > 1000 mg/kg | LD50 (in vivo; ip, LD50 1 × ip): ~158 mg/kg

CC(=O)O[C@H]1C(=O)[C@@]2(C)[C@H]([C@H](OC(=O)c3ccccc3)[C@]3(O)C[C@H](OC(=O)[C@H](O)[C@@H](NC(=O)c4ccccc4)c4ccccc4)C(C)=C1C3(C)C)[C@]1(OC(C)=O)CO[C@@H]1C[C@@H]2O [Taxol, reference compound]
EC50 (KB cell line): < 0.003 µg/mL | EC50 (L1210 cell line): < 0.003 µg/mL | EC50 (LNCAP cell line; LNCaP): < 0.003 µg/mL | EC50 (SK-OV-3 cell line): < 0.003 µg/mL | Tox. i.p. [5]: ≈158 i.p. mg/kg | ILS at 14.7 mg/kg (L1210 [6]; 1 × 14.7 mg/kg i.v.): 22% | ILS at 46.4 mg/kg (L1210 [6]; 1 × 46.4 mg/kg i.v.): 61%

O=C(Nc1ccncc1)C(=O)c1cn(Cc2ccc(Cl)cc2)c2ccccc12 [Example 13, N-(Pyridin-4-yl)-[1-(4-chlorobenzyl)indol-3-yl]glyoxylamide]
EC50 (KB cell line): ~0.017 µg/mL (≈ 0.0436 µM) | EC50 (L1210 cell line): ~0.017 µg/mL (≈ 0.0436 µM) | EC50 (LNCAP cell line; LNCaP): ~0.03 µg/mL (≈ 0.077 µM) | EC50 (SK-OV-3 cell line): ~0.03 µg/mL (≈ 0.077 µM) | Hollow fiber subcutaneous % INH (KB [1]; 4 × 46 mg/kg ip): 44% | Hollow fiber intraperitoneal % INH (KB [1]; 4 × 147 mg/kg ip): 12% | Hollow fiber subcutaneous % INH (KB [1]; 4 × 147 mg/kg ip): 35% | Hollow fiber intraperitoneal % INH (L1210 [2]; 4 × 46 mg/kg ip): 56% | Hollow fiber subcutaneous % INH (L1210 [2]; 4 × 46 mg/kg ip): no action | Hollow fiber intraperitoneal % INH (L1210 [2]; 4 × 147 mg/kg ip): 60% | Hollow fiber subcutaneous % INH (L1210 [2]; 4 × 147 mg/kg ip): 67% | Hollow fiber intraperitoneal % INH (MCF-7; 4 × 46 mg/kg ip): 38% | Hollow fiber subcutaneous % INH (MCF-7; 4 × 46 mg/kg ip): 47% | Hollow fiber intraperitoneal % INH (MCF-7; 4 × 147 mg/kg ip): 68% | Hollow fiber subcutaneous % INH (MCF-7; 4 × 147 mg/kg ip): 68% | ILS at 464 mg/kg (L1210 [3]; Mus musculus, L1210, ip, 1 × 464 mg/kg ip): 18% | ILS at 681 mg/kg (L1210 [3]; Mus musculus, L1210, ip, 1 × 681 mg/kg ip): 0% | ILS at 147 mg/kg (L1210 [3]; Mus musculus, L1210, ip, 4 × 147 mg/kg ip): 94% | ILS at 215 mg/kg (L1210 [3]; Mus musculus, L1210, ip, 4 × 215 mg/kg ip): 13% | ILS at 100 mg/kg (L1210 [3]; Mus musculus, L1210, ip, 7 × 100 mg/kg ip): 35% | ILS at 147 mg/kg (L1210 [3]; Mus musculus, L1210, ip, 7 × 147 mg/kg ip): 59% | ILS at 681 mg/kg (L1210 [3]; Mus musculus, L1210, po, 1 × 681 mg/kg po): 22% | ILS at 215 mg/kg (L1210 [3]; Mus musculus, L1210, po, 4 × 215 mg/kg po): 31% | ILS at 100 mg/kg (L1210 [3]; Mus musculus, L1210, po, 7 × 100 mg/kg po): 63% | ILS at 147 mg/kg (L1210 [3]; Mus musculus, L1210, po, 7 × 147 mg/kg po): 75% | Prolongation of the survival time, L1210 (L1210 [3]; intraperitoneal or oral administration, 100 and 147 mg/kg multiple dose): distinct dose-dependent prolongation of the survival time | Antitumor action on L 1210 (mouse) (L1210 [3]): strong dose-dependent antitumor action | Antitumor action in the KB test on the nude mouse (KB [4]): antitumor action | % WHI (SK-OV-3; 2 × 215 mg/kg po): 18% | % WHI (SK-OV-3; 7 × 46 mg/kg ip): 33% | Tumor growth in the Dunning tumor (Dunning tumor; listed as D24851): stoppage of tumor growth and in some animals even tumor regression | Tumor growth in the Dunning tumor (Dunning tumor; listed as D-24851): Stoppage of tumor growth, in some animals even tumor regression | DNA fragmentation (DNA): no DNA fragmentation | Blood parameters in the hematopoiesis test (Hematopoiesis test): none of the blood parameters investigated were modified; also recorded: none of the blood parameters investigated were altered | LD50 1 × per os [5]: >1000 mg/kg | Tox. i.p. [5]: ≈1000 i.p. mg/kg | LD50 (in vivo; LD50 1 × per os): 1000 mg/kg | LD50 (in vivo; ip, LD50 1 × ip): > 1000 mg/kg
